Data as given in article PMC7129073 (Clinical Microbiology and Infection, 2015).
≈ marks a conversion by molar mass, not a printed value.

What was measured:
[1] = system: Acinetobacter; experiment: Disk diffusion; type: cell-based; conditions: 37 isolates selected as resistant to beta-lactams
[2] = system: Escherichia coli; experiment: Vitek 2 susceptibility, urine isolates of children; type: cell-based
[3] = system: F. necrophorum; experiment: E-test, 13 clinical isolates; type: cell-based, Fusobacterium necrophorum
[4] = system: S. aureus; experiment: E-test susceptibility; type: cell-based, Staphylococcus aureus
[5] = system: S. pneumoniae; experiment: Broth microdilution; type: cell-based, Streptococcus pneumoniae
[6] = system: PRSP; experiment: Broth microdilution; type: cell-based, Streptococcus pneumoniae
[7] = system: H.influenzae; experiment: Broth microdilution; type: cell-based, Haemophilus influenzae; conditions: for %Sus: NCCLS
[8] = system: ERSP; experiment: Broth microdilution; type: cell-based, Streptococcus pneumoniae
[9] = system: S. pneumoniae; experiment: MIC of invasive strains, Saint George Hospital 2001–2004; type: cell-based, Streptococcus pneumoniae
[10] = system: E. coli; experiment: E-test susceptibility; type: cell-based, Escherichia coli
[11] = system: Shigella spp.; experiment: Disk diffusion, stool isolates Tehran; type: cell-based; conditions: 96 isolates
[12] = system: MSSA; experiment: Agar dilution MIC; type: cell-based, Staphylococcus aureus
[13] = ICU, SRGA breakpoints, tigecycline tentative S ≤2 μg/ml
[14] = NCCLS breakpoints (Amox/Clav 2/1 mcg/mL)
[15] = PK breakpoint of 4/2 mcg/mL, Augmentin ES-600

CC1(C)S[C@@H]2[C@H](NC(=O)[C@H](NC(=O)N3CCN(S(C)(=O)=O)C3=O)c3ccccc3)C(=O)N2[C@H]1C(=O)O [mezlocillin]
resistant isolates [1]: 100.0%

CC(=O)OCC1=C(C(=O)O)N2C(=O)[C@@H](NC(=O)Cc3cccs3)[C@H]2SC1 [cefalothin]
susceptibility rate ([2]; paediatric surgical unit (PSU)): 19% | susceptibility rate ([2]; paediatric units (PU)): 66%

C[C@H]1c2cccc(O)c2C(=O)C2=C(O)[C@]3(O)C(=O)C(C(N)=O)=C(O)[C@@H](N(C)C)[C@@H]3[C@@H](O)[C@@H]21 [doxycycline]
resistant isolates [1]: 54.1% | MIC range [3]: 0.016 to 0.75 mg/L | MIC50 ([3]; Fusobacterium necrophorum): 0.064 µg/mL (≈ 0.144 µM) | MIC90 ([3]; Fusobacterium necrophorum): 0.19 µg/mL (≈ 0.428 µM)

CC(=O)O[C@H]1C[C@@]2(C)[C@@H](C[C@@H](O)[C@H]3[C@@]4(C)CC[C@@H](O)[C@@H](C)[C@@H]4CC[C@@]32C)/C1=C(\CCC=C(C)C)C(=O)O [fusidic acid]
Susceptibility [4, 13]: 91% | Susceptibility ([4]; non-ICU): 93%

Trimethoprim/sulfamethoxazole [TMP/SMX]
MIC90 [5]: 8 µg/mL | %Sus [5, 14]: 50.2% | MIC90 [6]: > 8 µg/mL | %Sus [6, 14]: 13.8% | MIC90 [7]: > 4 µg/mL | %Sus [7]: 76.5% | MIC90 [8]: 8 µg/mL | %Sus [8, 14]: 24.5%

CO/N=C(\C(=O)N[C@@H]1C(=O)N2C(C(=O)O)=C(COC(N)=O)CS[C@H]12)c1ccco1 [Cefuroxime, cefuroxim]
MIC90 [5]: 8 µg/mL (≈ 18.9 µM) | %Sus [5, 14]: 65.2% | MIC90 [6]: 8 µg/mL (≈ 18.9 µM) | %Sus [6, 14]: 0.7% | MIC90 [7]: 2 µg/mL (≈ 4.71 µM) | %Sus [7]: 96.7% | % S [9]: 95.2% | %R [9]: 4.8% | MIC90 [8]: 8 µg/mL (≈ 18.9 µM) | %Sus [8, 14]: 26.0% | Susceptible isolates [10, 13]: 92% | Susceptible isolates ([10]; non ICU): 94%

CCn1cc(C(=O)O)c(=O)c2cc(F)c(N3CCNC(C)C3)c(F)c21 (centres unmarked) [lomefloxacin]
resistant isolates [1]: 100.0%

CO/N=C(\C(=O)N[C@@H]1C(=O)N2C(C(=O)O)=CCS[C@H]12)c1csc(N)n1 [ceftizoxime]
sensitive [11]: 85% | resistant isolates [1]: 86.5%

CO[C@@]1(NC(=O)C(C(=O)O)c2ccc(O)cc2)C(=O)N2C(C(=O)O)=C(CSc3nnnn3C)CO[C@@H]21 (some centres unmarked) [moxalactam]
resistant isolates [1]: 75.7%

Cc1onc(-c2ccccc2Cl)c1C(=O)N[C@@H]1C(=O)N2[C@@H]1SC(C)(C)[C@@H]2C(=O)O [Cloxacilin, cloxacillin]
MIC50 ([12]; Staphylococcus aureus, MSSA): < 0.25 µg/mL | MIC90 ([12]; Staphylococcus aureus, MSSA): < 0.25 µg/mL | MIC range ([12]; n = 200): 0.125 to 16 mg/mL

Amoxicillin / Clavulanic acid [Amox/Clav]
MIC90 [5]: 2 µg/mL | %Sus [5, 14]: 92.3% | %Sus [5, 15]: 96.5% | MIC90 [6]: 8 µg/mL | %Sus [6, 14]: 67.1% | %Sus [6, 15]: 83.5% | MIC90 [7]: 2 µg/mL | %Sus [7]: 99.2% | MIC90 [8]: 8 µg/mL | %Sus [8, 14]: 81.5% | %Sus [8, 15]: 88.6%
